Measured values as given in EPA's ToxValDB 9.5 (doi:10.2903/j.efsa.2007.107r).

Assays:
[1] = system: Rattus norvegicus
[2] = system: Apis mellifera; settings: acute; oral; unspecified; mortality
[3] = system: Oryctolagus sp.; settings: developmental; development
[4] = system: Daphnia magna; settings: chronic/long-term; duration: 21 days
[5] = system: Colinus virginianus
[6] = system: Oncorhynchus mykiss
[7] = system: Tagia sp.; settings: acute; duration: 14 days; mortality
[8] = system: Typhlodromus pyri; assay: LR50; higher = less toxic; settings: acute; duration: 7 days; reproduction

Compound: CC(C)OC(=O)N[C@H](C(=O)N[C@H](C)c1nc2ccc(F)cc2s1)C(C)C [Benthiavalicarb-isopropyl]
- LD50 ([1]; acute, oral, mortality): > 5000 mg/kg
- NOAEL ([1]; chronic, duration: 2 years, clinical chemistry): 9.9 mg/kg-day
- NOAEL ([1]; reproduction developmental, organ weight): 10 mg/kg-day
- LD50 [2]: > 100 µg/piece
- NOAEL [3]: 20 mg/kg-day
- NOEC [4]: 3 mg/L
- LC50 ([5]; acute, oral, diet, mortality): > 937 mg/kg-day
- LD50 ([5]; acute, oral, mortality): > 2000 mg/kg
- NOEL ([5]; reproduction developmental, duration: 24 weeks): 105 mg/kg-day
- LC50 ([6]; acute, duration: 96 hours, mortality): > 10 µg/mL
- NOEC ([6]; chronic/long-term, duration: 28 days): 1 mg/L
- LC50 [7]: > 500 mg/kg
- LR50 [8]: 290 g/ha
